Results from patent publication US5892029A, “3-hydroxy-2(1H)-pyridinone chelating agents” (priority 1997, dated 1999).
Read-outs that look alike come from different tables or passages of the source.

What was measured:
[1] = 30 μmol/kg i.p. at 1 h; reported previously (footnote e); cited from earlier work
[2] = type: in vivo, mice
Description: The test of acute toxicity of these novel ligands was carried out as follows. […] The ligand was dissolved in 0.5 to 1.0 ml of saline at pH 7 to 8. After a period of observation, the mice were killed, selected tissues were removed and fixed for histopathological examination,and unusual findings at autopsy were recorded.

[3] = Liquid/liquid extraction of Pu(IV) from aqueous solution (Tables 7 and 8)
Description: Liquid/liquid extractions were performed with the radioactive plutonium isotope ^242 Pu at the Lawrence Livermore National Laboratory's Glenn T. Seaborg Institute for Transactinium Science, Livermore, Calif. The aqueous phase contained ^242 Pu, while the organic phases contained 3,2-HOPO ligands at 2-5 mM concentration. Kinetic studies were the primary method used to determine the efficacy of the specific ligand in organic solvent. Generally, five microcentrifuge tubes were prepared with the same organic and aqueous phases, and shaken with a vortex-style mixer for 1, 5, 10, and 20 minutes. After mixing, an aliquot of each phase was pipetted from the tube into a scintillation vial, mixed with a scintillation cocktail, and scintillation counted to determine the amount of the radioactive species present in each phase after extraction.

[4] = protocol IA: 100 μmol/kg × 2 daily, 3 d, mean ± SD
[5] = protocol IA: 100 μmol/kg × 2 daily, 11 d, mean ± SD
[6] = protocol IA: 100 μmol/kg × 2 daily, 6 d, two moribund mice autopsied on d 3
[7] = octanol, 0.10M aqueous, 1.0 min
[8] = octanol, 0.10M aqueous, 5.0 min
[9] = octanol, 0.10M aqueous, 10.0 min
[10] = octanol, 0.10M aqueous, 20.0 min
[11] = octanol, 5.0M aqueous, 10.0 min
[12] = octanol, 5.0M aqueous, 20.0 min
[13] = protocol I: 100 μmol/kg × 10 daily i.p., 11 d, mean ± SD
[14] = protocol I: 100 μmol/kg × 10 daily i.p., 21 d, mean ± SD
[15] = protocol II: 500 μmol/kg × 2 in 8 h i.p., 8 d, mean ± SD

## CC(=O)N(O)CCCCCNC(=O)CCC(=O)N(O)CCCCCNC(=O)CCC(=O)N(O)CCCCCNC(=O)c1cccc(=O)n1O [DFO-(1,2-HOPO)]
[1]
  238Pu excreta: feces and GI contents: 46.7% of injected ^238 Pu
  238Pu excreta: urine 0-24 h: 9.5% of injected ^238 Pu
  238Pu in kidneys at 24 h: 0.1% of injected ^238 Pu
  238Pu in liver at 24 h: 5.1 ± 2.2% of injected ^238 Pu
  238Pu in skeleton at 24 h: 6.0 ± 0.5% of injected ^238 Pu
  238Pu in soft tissue at 24 h: 2.3 ± 0.5% of injected ^238 Pu
  238Pu in whole body at 24 h: 13 ± 2.9% of injected ^238 Pu

## Cn1ccc(C(=O)NCCCCCCNC(=O)c2ccn(C)c(=O)c2O)c(O)c1=O [6-LI-Me-3,2-HOPO, 1,6-bis[(3-hydroxy-1-methyl-2-oxo-1,2-dihydropyridin-4-yl)carboxamido]hexane]
[2]; [4]
  body weight: 83 ± 3 percent control
  kidney weight: 132 ± 11 percent control
  plasma urea N: 343 ± 140 percent control
[2]; protocol IA: 100 μmol/kg × 2 daily, 3 d, of 5 mice
  no. of survivors: 5
[2]; [5]
  body weight: 101 ± 5 percent control
  kidney weight: 112 ± 13 percent control
  plasma urea N: 92 ± 6 percent control
[2]; protocol IA: 100 μmol/kg × 2 daily, 11 d, of 5 mice
  no. of survivors: 3

## O=C(NCCCN(CCCCN(CCCNC(=O)c1cccc(=O)n1O)C(=O)c1cccc(=O)n1O)C(=O)c1cccc(=O)n1O)c1cccc(=O)n1O [3,4,3-LI(1,2-HOPO)]
[1]
  238Pu excreta: feces and GI contents: 57% of injected ^238 Pu
  238Pu excreta: urine 0-24 h: 23% of injected ^238 Pu
  238Pu in kidneys at 24 h: 0.2% of injected ^238 Pu
  238Pu in liver at 24 h: 8.9 ± 1.7% of injected ^238 Pu
  238Pu in skeleton at 24 h: 7.5 ± 0.7% of injected ^238 Pu
  238Pu in soft tissue at 24 h: 1.6 ± 0.6% of injected ^238 Pu
  238Pu in whole body at 24 h: 18 ± 1.7% of injected ^238 Pu

## Cn1ccc(C(=O)NCCCNC(=O)c2ccn(C)c(=O)c2O)c(O)c1=O [3-LI-Me-3,2-HOPO, 1,3-bis[(3-hydroxy-1-methyl-2-oxo-1,2-dihydropyridin-4-yl)carboxamido] propane]
[2]; mouse, in vivo
  toxicity / mortality (in words): all mice were dead by d 3
[2]; protocol IA: 100 μmol/kg × 2 daily, 6 d, of 10 mice
  no. of survivors: 0
[2]; [6]
  body weight: 89 ± 4 percent control
  kidney weight: 222 ± 29 percent control
  plasma urea N: > 1800 percent control

## O=C(NCCCCN(CCCNC(=O)c1cccc(=O)n1O)C(=O)c1cccc(=O)n1O)c1cccc(=O)n1O [3,4-LI(1,2-HOPO)]
[1]
  238Pu excreta: feces and GI contents: 58% of injected ^238 Pu
  238Pu excreta: urine 0-24 h: 7.9% of injected ^238 Pu
  238Pu in kidneys at 24 h: 0.6% of injected ^238 Pu
  238Pu in liver at 24 h: 18 ± 4.8% of injected ^238 Pu
  238Pu in skeleton at 24 h: 9.9 ± 3.6% of injected ^238 Pu
  238Pu in soft tissue at 24 h: 5.8 ± 1.3% of injected ^238 Pu
  238Pu in whole body at 24 h: 34 ± 9.2% of injected ^238 Pu

## O=C(NCc1cc(CNC(=O)c2cccc(=O)n2O)cc(CNC(=O)c2cccc(=O)n2O)c1)c1cccc(=O)n1O [ME-(1,2-HOPO)]
[1]
  238Pu excreta: feces and GI contents: 43% of injected ^238 Pu
  238Pu excreta: urine 0-24 h: 9.6% of injected ^238 Pu
  238Pu in kidneys at 24 h: 1.8% of injected ^238 Pu
  238Pu in liver at 24 h: 18 ± 6.3% of injected ^238 Pu
  238Pu in skeleton at 24 h: 17 ± 2.5% of injected ^238 Pu
  238Pu in soft tissue at 24 h: 10 ± 1.8% of injected ^238 Pu
  238Pu in whole body at 24 h: 47 ± 9.4% of injected ^238 Pu

## CCCCCCCCNC(=O)c1ccn(C)c(=O)c1O [Me-2-HOPO-Octylamide]
[3]; MIBK, 0.10M aqueous, 1.0 min
  % Pu(IV) Extracted: 95.6 ± 4.4%
  Partition Coefficient: 21.90 ± 1.09
[3]; MIBK, 0.10M aqueous, 5.0 min
  % Pu(IV) Extracted: 91.8 ± 4.3%
  Partition Coefficient: 11.22 ± 0.73
[3]; MIBK, 0.10M aqueous, 10.0 min
  % Pu(IV) Extracted: 96.8 ± 4.5%
  Partition Coefficient: 30.07 ± 1.26
[3]; MIBK, 0.10M aqueous, 20.0 min
  % Pu(IV) Extracted: 96.5 ± 4.5%
  Partition Coefficient: 27.56 ± 0.76
[3]; MIBK, 5.0M aqueous, 1.0 min
  % Pu(IV) Extracted: 98.8 ± 4.6%
  Partition Coefficient: 79.22 ± 1.71
[3]; MIBK, 5.0M aqueous, 5.0 min
  % Pu(IV) Extracted: 98.2 ± 4.6%
  Partition Coefficient: 53.99 ± 1.54
[3]; MIBK, 5.0M aqueous, 10.0 min
  % Pu(IV) Extracted: 96.4 ± 4.5%
  Partition Coefficient: 26.82 ± 1.18
[3]; MIBK, 5.0M aqueous, 20.0 min
  % Pu(IV) Extracted: 83.9 ± 3.9%
  Partition Coefficient: 5.20 ± 0.40
[3]; [7]
  % Pu(IV) Extracted: 94.4 ± 4.4%
  Partition Coefficient: 16.83 ± 0.89
[3]; [8]
  % Pu(IV) Extracted: 94.5 ± 4.5%
  Partition Coefficient: 17.10 ± 1.12
[3]; [9]
  % Pu(IV) Extracted: 92.1 ± 4.3%
  Partition Coefficient: 11.71 ± 0.72
[3]; [10]
  % Pu(IV) Extracted: 91.2 ± 4.2%
  Partition Coefficient: 10.32 ± 0.67
[3]; octanol, 5.0M aqueous, 1.0 min
  % Pu(IV) Extracted: 97.8 ± 4.1%
  Partition Coefficient: 44.22 ± 1.43
[3]; octanol, 5.0M aqueous, 5.0 min
  % Pu(IV) Extracted: 97.4 ± 4.5%
  Partition Coefficient: 36.91 ± 1.30
[3]; [11]
  % Pu(IV) Extracted: 95.2 ± 4.4%
  Partition Coefficient: 19.78 ± 0.98
[3]; [12]
  % Pu(IV) Extracted: 91.4 ± 4.3%
  Partition Coefficient: 10.69 ± 0.67

## CCCCCCCCCCNC(=O)c1ccn(C)c(=O)c1O [Me-2-HOPO-Decylamide]
[3]; MIBK, 0.10M aqueous, 1.0 min
  % Pu(IV) Extracted: 98.2 ± 4.5%
  Partition Coefficient: 53.63 ± 1.60
[3]; MIBK, 0.10M aqueous, 5.0 min
  % Pu(IV) Extracted: 95.9 ± 4.4%
  Partition Coefficient: 23.40 ± 1.14
[3]; MIBK, 0.10M aqueous, 10.0 min
  % Pu(IV) Extracted: 97.7 ± 4.5%
  Partition Coefficient: 42.43 ± 1.43
[3]; MIBK, 0.10M aqueous, 20.0 min
  % Pu(IV) Extracted: 93.2 ± 4.3%
  Partition Coefficient: 13.63 ± 0.82
[3]; MIBK, 5.0M aqueous, 1.0 min
  % Pu(IV) Extracted: 97.9 ± 4.5%
  Partition Coefficient: 46.00 ± 1.48
[3]; MIBK, 5.0M aqueous, 5.0 min
  % Pu(IV) Extracted: 97.9 ± 4.5%
  Partition Coefficient: 46.62 ± 1.43
[3]; MIBK, 5.0M aqueous, 10.0 min
  % Pu(IV) Extracted: 95.8 ± 4.4%
  Partition Coefficient: 22.87 ± 1.07
[3]; MIBK, 5.0M aqueous, 20.0 min
  % Pu(IV) Extracted: 81.9 ± 3.8%
  Partition Coefficient: 4.52 ± 0.35
[3]; [7]
  % Pu(IV) Extracted: 68.9 ± 3.3%
  Partition Coefficient: 2.22 ± 0.19
[3]; [8]
  % Pu(IV) Extracted: 96.2 ± 4.5%
  Partition Coefficient: 25.39 ± 1.12
[3]; [9]
  % Pu(IV) Extracted: 95.2 ± 4.4%
  Partition Coefficient: 19.71 ± 1.00
[3]; [10]
  % Pu(IV) Extracted: 92.4 ± 4.3%
  Partition Coefficient: 12.11 ± 0.75
[3]; octanol, 5.0M aqueous, 1.0 min
  % Pu(IV) Extracted: 98.3 ± 4.6%
  Partition Coefficient: 56.64 ± 1.58
[3]; octanol, 5.0M aqueous, 5.0 min
  % Pu(IV) Extracted: 96.4 ± 4.5%
  Partition Coefficient: 26.98 ± 1.13
[3]; [11]
  % Pu(IV) Extracted: 93.6 ± 4.4%
  Partition Coefficient: 14.74 ± 0.83
[3]; [12]
  % Pu(IV) Extracted: 88.3 ± 4.1%
  Partition Coefficient: 7.51 ± 0.53

## Cn1ccc(C(=O)NCCN(CCNC(=O)c2ccn(C)c(=O)c2O)CCN(CCNC(=O)c2ccn(C)c(=O)c2O)CCNC(=O)c2ccn(C)c(=O)c2O)c(O)c1=O [H(2,2)-Me-3,2-HOPO, N,N,N',N'-tetrakis[(3-hydroxy-1-methyl-2-oxo-1,2-dihydropyridin-4-yl)carboxamido-ethyl]-ethylenediamine]
[2]; [13]
  body weight: 92 ± 6 percent control
  plasma urea N: 223 ± 28 percent control
[2]; protocol I: 100 μmol/kg × 10 daily i.p., 11 d, of 5 mice
  no. of survivors: 5
[2]; [14]
  body weight: 87 ± 9 percent control
  plasma urea N: 225 ± 188 percent control
[2]; protocol I: 100 μmol/kg × 10 daily i.p., 21 d, of 5 mice
  no. of survivors: 5
[2]; [15]
  body weight: 94 ± 6 percent control
  plasma urea N: 169 ± 10 percent control
[2]; protocol II: 500 μmol/kg × 2 in 8 h i.p., 8 d, of 19 (TREN) or 10 (H(2,2)) mice
  no. of survivors: 3

## CC(=O)N(O)CCCCCNC(=O)CCC(=O)N(O)CCCCCNC(=O)CCC(=O)N(O)CCCCCN [DFO, desferrioxamine B]
[1]
  238Pu excreta: feces and GI contents: 15.1% of injected ^238 Pu
  238Pu excreta: urine 0-24 h: 38% of injected ^238 Pu
  238Pu in kidneys at 24 h: 1.8% of injected ^238 Pu
  238Pu in liver at 24 h: 19 ± 13% of injected ^238 Pu
  238Pu in skeleton at 24 h: 20 ± 11% of injected ^238 Pu
  238Pu in soft tissue at 24 h: 4.5 ± 1.4% of injected ^238 Pu
  238Pu in whole body at 24 h: 45 ± 2.5% of injected ^238 Pu

## CC(=O)N(O)CCCCCNC(=O)CCC(=O)N(O)CCCCCNC(=O)CCC(=O)N(O)CCCCCNC(=O)c1ccn(C)c(=O)c1O [DFO-Me-3,2-HOPO]
[1]
  238Pu excreta: feces and GI contents: 26.4% of injected ^238 Pu
  238Pu excreta: urine 0-24 h: 21% of injected ^238 Pu
  238Pu in kidneys at 24 h: 3.0% of injected ^238 Pu
  238Pu in liver at 24 h: 13 ± 3.5% of injected ^238 Pu
  238Pu in skeleton at 24 h: 17 ± 2.4% of injected ^238 Pu
  238Pu in soft tissue at 24 h: 19 ± 3.0% of injected ^238 Pu
  238Pu in whole body at 24 h: 53 ± 3.4% of injected ^238 Pu
